Key:
Kuramochi cells = experiment: BrdU Cell Proliferation Assay; type: cell-based; conditions: read-out: BrdU - KURAMOCHI.1: IC50
In short: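 Signal is 450 nm absorbance from a peroxidase anti-BrdU ELISA after a 1-hour BrdU label, background-subtracted and normalized to DMSO-treated wells. Kuramochi cells (2,000 per well) had been exposed to compound for 4 days. Dosing used a 10-point dose response in 3-fold steps.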

[1] = tested on: Kuramochi cells labeled with mApple-H2B; experiment: IncuCyte Cell Proliferation Assay; type: cell-based; conditions: 72 h
In short: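 GI50 came from dose-response fits of cell-count fold change between 0 and 72 h, normalized to DMSO controls. Counts were fluorescent nuclei from live-cell images over a 10-point, ½ log series starting at 20 μM.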

Compound | IC50 (Kuramochi cells) | IC50 [1]
CNC(=O)[C@@H](NC(=O)[C@@H]1CN(C(=O)c2cnn(Cc3ccccc3)c2)CC12CN(C(=O)[C@H]1CC1(C)C)C2)[C@@H](C)OCC1CCCCC1 [I-123A, (S)-6-(1-benzyl-1H-pyrazole-4-carbonyl)-N-((2S,3R)-3-(cyclohexylmethoxy)-1-(methylamino)-1-oxobutan-2-yl)-2-((S)-2,2-dimethylcyclopropane-1-carbonyl)-2,6-diazaspiro[3.4]octane-8-carboxamide] | ≤ 0.5 µM | 0.5 to 5 µM
CNC(=O)[C@@H](NC(=O)[C@@H]1CN(C(=O)c2cnn(Cc3ccccc3)c2)CC12CN(C(=O)[C@H]1CC1(C)C)C2)[C@@H](C)OCCC1CCCCC1 [I-125A] | ≤ 0.5 µM | ≤ 0.5 µM
CNC(=O)[C@@H](NC(=O)[C@H]1CN(C(=O)c2cnn(Cc3ccccc3)c2)CC12CN(C(=O)[C@H]1CC1(C)C)C2)[C@@H](C)OCCC1CCCCC1 [I-125B] | 0.5 to 5 µM | 0.5 to 5 µM
CNC(=O)[C@@H](NC(=O)[C@@H]1CN(C(=O)c2cncs2)CC12CN(C(=O)[C@H]1CC1(C)C)C2)[C@@H](C)OCC1CCCCC1 [I-129A] | 0.5 to 5 µM | 0.5 to 5 µM
CNC(=O)[C@@H](NC(=O)[C@@H]1CN(C(=O)c2cnn(Cc3ccccc3)c2)CC12CN(C(=O)[C@H]1CC1(C)C)C2)[C@@H](C)OCC(C)(C)C [I-130A] | 5 to 10 µM | 5 to 20 µM
CO[C@H]1COCC[C@@H]1NC(=O)[C@@H]1CN(C(=O)c2cnn(Cc3ccccc3)c2)CC12CN(C(=O)[C@H]1CC1(C)C)C2 [I-131A] | > 10 µM | > 20 µM
C[C@@H](OCC1CCCCC1)[C@H](NC(=O)[C@@H]1CN(C(=O)c2cnn(CC(F)(F)F)c2)CC12CN(C(=O)[C@H]1CC1(C)C)C2)C(=O)N1CCCCC1 [I-132] | 0.5 to 5 µM | 0.5 to 5 µM
CC1(C)C[C@@H]1C(=O)N1CC2(CN(C(=O)c3cnn(Cc4ccccc4)c3)C[C@@H]2C(=O)N[C@H]2CCc3cc(Cl)ccc32)C1 [I-133B] | > 10 µM | > 20 µM
CO[C@H]1COCC[C@H]1NC(=O)[C@@H]1CN(C(=O)c2cnn(Cc3ccccc3)c2)CC12CN(C(=O)[C@H]1CC1(C)C)C2 [I-134A] | > 10 µM | > 20 µM
CO[C@H]1COCC[C@H]1NC(=O)[C@H]1CN(C(=O)c2cnn(Cc3ccccc3)c2)CC12CN(C(=O)[C@H]1CC1(C)C)C2 [I-134B] | > 10 µM | > 20 µM
C[C@@H](OCC1CCCCC1)[C@@H](CO)NC(=O)[C@@H]1CN(C(=O)c2cnn(Cc3ccccc3)c2)CC12CN(C(=O)[C@H]1CC1(C)C)C2 [I-135A] | 0.5 to 5 µM | 0.5 to 5 µM
C[C@@H](OCC1CCCCC1)[C@@H](CO)NC(=O)[C@H]1CN(C(=O)c2cnn(Cc3ccccc3)c2)CC12CN(C(=O)[C@H]1CC1(C)C)C2 [I-135B] | > 10 µM | 5 to 20 µM
CNC(=O)[C@@H](NC(=O)[C@@H]1CN(C(=O)c2cnn(Cc3ccc(F)cc3)c2)CC12CN(C(=O)[C@H]1CC1(C)C)C2)[C@@H](C)OCc1ccc(F)cc1 [I-136A] | 0.5 to 5 µM | 5 to 20 µM
CNC(=O)[C@@H](NC(=O)[C@@H]1CN(C(=O)c2cnn(Cc3ccccc3)c2)CC12CN(C(=O)[C@H]1CC1(C)C)C2)[C@@H](C)OCC(C)C [I-137A] | > 10 µM | > 20 µM
CNC(=O)[C@@H](NC(=O)[C@H]1CN(C(=O)c2cnn(Cc3ccccc3)c2)CC12CN(C(=O)[C@H]1CC1(C)C)C2)[C@@H](C)OCC(C)C [I-137B] | > 10 µM | > 20 µM
C[C@@H](OCC1CCCCC1)[C@H](NC(=O)C1CN(C(=O)c2cncs2)CC12CN(C(=O)[C@H]1CC1(C)C)C2)C(=O)N1CCOCC1 (stereo partly drawn) [I-138] | ≤ 0.5 µM | ≤ 0.5 µM
CC1(C)C[C@@H]1C(=O)N1CC2(CN(C(=O)c3cnn(Cc4ccccc4)c3)C[C@H]2C(=O)N[C@H]2C[C@@H]2c2cccc(Cl)c2)C1 [I-140A] | > 10 µM | 5 to 20 µM

Compound | IC50 (Kuramochi cells) | IC50 [1]
CNC(=O)[C@@H](NC(=O)[C@H]1CN(C(=O)c2cnn(Cc3ccccc3)c2)CC12CN(C(=O)[C@H]1CC1(C)C)C2)[C@@H](C)OCC1CCC(C(F)(F)F)CC1 (stereo partly drawn) [I-141B] | 0.5 to 5 µM | 5 to 20 µM
C[C@@H](OCC1CCCCC1)[C@H](NC(=O)C1CN(C(=O)c2cnn(Cc3ccccc3)c2)CC12CN(C(=O)[C@H]1CC1(C)C)C2)C(=O)N1CCC(F)(F)CC1 (stereo partly drawn) [I-149 mixture] | ≤ 0.5 µM | ≤ 0.5 µM
C[C@@H](OCC1CCCCC1)[C@H](NC(=O)[C@@H]1CN(C(=O)c2cnn(Cc3ccccc3)c2)CC12CN(C(=O)[C@H]1CC1(C)C)C2)C(=O)N1CCC(F)(F)CC1 [I-149A] | ≤ 0.5 µM | ≤ 0.5 µM
C[C@@H](OCC1CCCCC1)[C@H](NC(=O)[C@@H]1CN(C(=O)c2cn[nH]c2)CC12CN(C(=O)[C@H]1CC1(C)C)C2)C(=O)N1CCCCC1 [I-151A] | 0.5 to 5 µM | 0.5 to 5 µM
C[C@@H](OCC1CCCCC1)[C@H](NC(=O)C1CN(C(=O)c2cnn(Cc3ccccc3)c2)CC12CN(C(=O)[C@H]1CC1(C)C)C2)C(=O)N1CCOCC1 (stereo partly drawn) [I-152 mixture] | ≤ 0.5 µM | ≤ 0.5 µM
C[C@@H](OCC1CCCCC1)[C@H](NC(=O)[C@@H]1CN(C(=O)c2cnn(Cc3ccccc3)c2)CC12CN(C(=O)[C@H]1CC1(C)C)C2)C(=O)N1CCOCC1 [I-152A] | ≤ 0.5 µM | ≤ 0.5 µM
C[C@@H](OCC1CCCCC1)[C@H](NC(=O)[C@H]1CN(C(=O)c2cnn(Cc3ccccc3)c2)CC12CN(C(=O)[C@H]1CC1(C)C)C2)C(=O)N1CCOCC1 [I-152B] | > 10 µM | 5 to 20 µM
C[C@@H](OCC1CCCCC1)[C@H](NC(=O)C1CN(C(=O)c2cnn(Cc3ccccc3)c2)CC12CN(C(=O)[C@H]1CC1(C)C)C2)C(=O)N1CC(C)(C)C1 (stereo partly drawn) [I-153 mixture] | ≤ 0.5 µM | ≤ 0.5 µM
C[C@@H](OCC1CCCCC1)[C@H](NC(=O)[C@@H]1CN(C(=O)c2cnn(Cc3ccccc3)c2)CC12CN(C(=O)[C@H]1CC1(C)C)C2)C(=O)N1CC(C)(C)C1 [I-153A] | ≤ 0.5 µM | ≤ 0.5 µM
C[C@@H](OCC1CCCCC1)[C@H](NC(=O)[C@@H]1CN(C(=O)c2cn[nH]c2)CC12CN(C(=O)[C@H]1CC1(C)C)C2)C(=O)N1CCC(F)(F)CC1 [I-154A] | 0.5 to 5 µM | 0.5 to 5 µM
CNC(=O)[C@@H](NC(=O)[C@H]1CN(C(=O)c2cnc(C)s2)CC12CN(C(=O)[C@H]1CC1(C)C)C2)[C@@H](C)OCC1CCCCC1 [I-156B] | > 10 µM | > 20 µM
CNC(=O)[C@@H](NC(=O)[C@@H]1CN(C(=O)c2scnc2Cl)CC12CN(C(=O)[C@H]1CC1(C)C)C2)[C@@H](C)OCC1CCCCC1 [I-157A] | 0.5 to 5 µM | 0.5 to 5 µM
CNC(=O)[C@@H](NC(=O)[C@@H]1CN(C(=O)c2sc(COC)nc2C)CC12CN(C(=O)[C@H]1CC1(C)C)C2)[C@@H](C)OCC1CCCCC1 [I-162A] | 0.5 to 5 µM | 5 to 20 µM
CNC(=O)[C@@H](NC(=O)[C@@H]1CN(C(=O)c2scnc2C(F)(F)F)CC12CN(C(=O)[C@H]1CC1(C)C)C2)[C@@H](C)OCC1CCCCC1 [I-163A] | > 10 µM | > 20 µM
C[C@@H](OCC1CCC(F)(F)CC1)[C@H](NC(=O)[C@@H]1CN(C(=O)c2cnn(Cc3ccc(F)cc3)c2)CC12CN(C(=O)[C@H]1CC1(C)C)C2)C(=O)N1CCC(F)(F)CC1 [I-164A] | ≤ 0.5 µM | ≤ 0.5 µM
C[C@@H](OCC1CCC(F)(F)CC1)[C@H](NC(=O)[C@H]1CN(C(=O)c2cnn(Cc3ccc(F)cc3)c2)CC12CN(C(=O)[C@H]1CC1(C)C)C2)C(=O)N1CCC(F)(F)CC1 [I-164B] | 0.5 to 5 µM | 0.5 to 5 µM

Reference: patent publication US12065445B2, “CDK2 inhibitors and methods of using the same” (Cedilla Therapeutics, Inc., priority 2021, dated 2024)
